Experimental data: US20250326772A1, “MRGPRX2 ANTAGONISTS, PHARMACEUTICAL COMPOSITION INCLUDING MRGPRX2 ANTAGONIST, AND METHOD OF TREATING MRGPRX2-MEDIATED DISEASE OR DISORDER” (KYORIN PHARMACEUTICAL CO., LTD., priority 2024, published 2025)

Target: T1, MRGPRX2 (Homo sapiens, UniProt Q96LB1)
T1 sequence (Q96LB1 1-330): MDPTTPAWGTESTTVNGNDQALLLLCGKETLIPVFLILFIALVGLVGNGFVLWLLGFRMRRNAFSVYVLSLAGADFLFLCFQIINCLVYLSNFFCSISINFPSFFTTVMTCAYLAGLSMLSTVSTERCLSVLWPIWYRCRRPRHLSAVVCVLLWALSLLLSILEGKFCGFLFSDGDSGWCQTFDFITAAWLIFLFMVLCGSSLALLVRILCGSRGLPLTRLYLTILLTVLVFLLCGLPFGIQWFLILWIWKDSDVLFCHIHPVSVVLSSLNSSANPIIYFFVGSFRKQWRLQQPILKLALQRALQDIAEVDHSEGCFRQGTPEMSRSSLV
Test: MRGPRX2 reporter cell assay (NFAT-RE luciferase, Substance P stimulation)
Format: cell-based
Conditions: U2OS cells stably transfected with MRGPRX2 and NFAT-RE luciferase reporter; Substance P at EC80
In short: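 U2OS cells stably expressing MRGPRX2 and an NFAT-RE luc2P reporter, pre-incubated 30 min at 37° C with compound (0.5% DMSO), then stimulated with Substance P at EC80 for 6 h. Luminescence after ONE-GLO; percent inhibition fitted by four-parameter logistic to IC50.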

IC50	SMILES
0.002 µM	Cn1cc(-c2c(-c3c(C(F)F)nn4c3OC[C@@H](OCC(C)(C)O)C4)[nH]c3ncccc23)c(OC(F)F)n1 [EX. 535]
0.0044 µM	Cn1cc(-c2c(-c3c(C(F)F)nn4c3OC[C@@H](O)C4)[nH]c3ncccc23)c(OC(F)F)n1 [EX. 527, (S)-3-(3-(3-(difluoromethoxy)-1-methyl-1H-pyrazol-4-yl)-1H-pyrrolo[2,3-b]pyridin-2-yl)-2-(difluoromethyl)-6,7-dihydro-5H-pyrazolo[5,1-b] [1,3]oxazin-6-ol]

Same assay, conditions: U2OS cells stably transfected with MRGPRX2 and NFAT-RE luciferase reporter; Substance P at EC80; class symbols

IC50	SMILES
< 0.01 µM	N#Cc1ccccc1-c1c(-c2c(C(F)F)nn3c2OCC(O)C3)[nH]c2ncccc12 (centres unmarked) [EX. 203]
< 0.01 µM	Cn1cc(-c2c(-c3c(C(F)F)nn4c3OC[C@@H](O)C4)[nH]c3ncccc23)c(C#N)n1 [EX. 491, (S)-4-(2-(2-(difluoromethyl)-6-hydroxy-6,7-dihydro-5H-pyrazolo[5,1-b] [1,3]oxazin-3-yl)-1H-pyrrolo[2,3-b]pyridin-3-yl)-1-methyl-1H-pyrazole-3-carbonitrile]
< 0.01 µM	Cc1ccc(F)c(-c2c(-c3cn(C)nc3C(F)(F)F)[nH]c3ncccc23)c1 [EX. 299]
< 0.01 µM	N#Cc1ncccc1-c1c(-c2c(C(F)F)nn3c2OC[C@@H](F)C3)[nH]c2ncccc12 [EX. 424]
0.01 to 0.1 µM	COc1nscc1-c1c(-c2c(C(F)F)nn3c2OCCC3)[nH]c2ncccc12 [EX. 404]
0.01 to 0.1 µM	FC(F)c1nn2c(c1-c1[nH]c3ncccc3c1-c1ccncc1C(F)(F)F)OCCC2 [EX. 412]
0.1 to 1 µM	COc1ccc(F)cc1-c1[nH]c2ncccc2c1C1=CC(C)(C)CCC1OC (centres unmarked) [EX. 351, 2-(5-fluoro-2-methoxyphenyl)-3-(6-methoxy-3,3-dimethylcyclohex-1-en-1-yl)-1H-pyrrolo[2,3-b]pyridine]
< 0.01 µM	CCOC(=O)N[C@@H]1COc2c(-c3[nH]c4ncccc4c3-c3cn(C)nc3OC(F)F)c(C(F)F)nn2C1 [EX. 573]
< 0.01 µM	CCO[C@@H]1COc2c(-c3[nH]c4ncccc4c3-c3cn(C)nc3OC(F)F)c(C(F)F)nn2C1 [EX. 532]
< 0.01 µM	CCO[C@@H]1COc2c(-c3[nH]c4ncccc4c3-c3cn(C)nc3C#N)c(C(F)F)nn2C1 [EX. 502]
< 0.01 µM	[2H]C([2H])([2H])Oc1ccc(C#N)c(-c2c(-c3c(C4CC4)nn4c3OCCC4)[nH]c3ncccc23)c1 [EX. 177]
< 0.01 µM	Cn1cc(-c2c(-c3c(C(F)F)nn4c3OC[C@@H](NS(=O)(=O)C3(C)CC3)C4)[nH]c3ncccc23)c(OC(F)F)n1 [EX. 574]
< 0.01 µM	COc1ccc(C#N)c(-c2c(-c3c(C(F)F)nn4c3OCCC4)[nH]c3ncccc23)c1 [EX. 242]
< 0.01 µM	CCNC(=O)O[C@@H]1COc2c(-c3[nH]c4ncccc4c3-c3cn(C)nc3OC(F)F)c(C(F)F)nn2C1 [EX. 539]
< 0.01 µM	[2H]C([2H])([2H])Oc1ccc(C#N)c(-c2c(-c3c(C(F)F)nn4c3OCCC4)[nH]c3ncccc23)c1 [EX. 247]
< 0.01 µM	Cn1cc(-c2c(-c3c(C(F)F)nn4c3OC[C@@H](OCC(C)(C)O)C4)[nH]c3ncccc23)c(OC(F)F)n1 [EX. 535]
< 0.01 µM	Cn1cc(-c2c(-c3c(C(F)F)nn4c3OC[C@@H](O)C4)[nH]c3ncsc23)c(OC(F)F)n1 [EX. 427, (S)-3-(6-(3-(difluoromethoxy)-1-methyl-1H-pyrazol-4-yl)-4H-pyrrolo[2,3-d]thiazol-5-yl)-2-(difluoromethyl)-6,7-dihydro-5H-pyrazolo[5,1-b] [1,3]oxazin-6-ol]
< 0.01 µM	N#Cc1ncccc1-c1c(-c2c(C(F)F)nn3c2OC[C@@H](O)C3)[nH]c2ncccc12 [EX. 477]
< 0.01 µM	C[C@H](O)C(=O)N[C@@H]1COc2c(-c3[nH]c4ncccc4c3-c3cn(C)nc3OC(F)F)c(C(F)F)nn2C1 [EX. 561]
< 0.01 µM	COC(=O)N[C@@H]1COc2c(-c3[nH]c4ncccc4c3-c3ccncc3C#N)c(C(F)F)nn2C1 [EX. 515]
< 0.01 µM	CS(=O)(=O)N[C@@H]1COc2c(-c3[nH]c4ncccc4c3-c3csnc3OC(F)F)c(C(F)F)nn2C1 [EX. 524]

IC50	SMILES
< 0.01 µM	O[C@@H]1COc2c(-c3[nH]c4ncccc4c3-c3cc(F)ccc3OC(F)F)c(C(F)F)nn2C1 [EX. 468]
< 0.01 µM	Cn1cc(-c2c(-c3c(C(F)F)nn4c3OC[C@@H](NC(=O)C3(C(N)=O)CC3)C4)[nH]c3ncccc23)c(OC(F)F)n1 [EX. 585]
< 0.01 µM	Cn1cc(-c2c(-c3c(C(F)F)nn4c3OC[C@@H](O)C4)[nH]c3ncccc23)c(OC(F)F)n1 [EX. 527, (S)-3-(3-(3-(difluoromethoxy)-1-methyl-1H-pyrazol-4-yl)-1H-pyrrolo[2,3-b]pyridin-2-yl)-2-(difluoromethyl)-6,7-dihydro-5H-pyrazolo[5,1-b] [1,3]oxazin-6-ol]
< 0.01 µM	FC(F)Oc1ccccc1-c1c(-c2c(C(F)F)nn3c2OC[C@@H](F)C3)[nH]c2ncccc12 [EX. 444]
< 0.01 µM	Cn1cc(-c2c(-c3c(C(F)F)nn4c3OC[C@@H](NC(=O)CC(C)(C)O)C4)[nH]c3ncccc23)c(OC(F)F)n1 [EX. 586, (S)—N-(3-(3-(3-(difluoromethoxy)-1-methyl-1H-pyrazol-4-yl)-1H-pyrrolo[2,3-b]pyridin-2-yl)-2-(difluoromethyl)-6,7-dihydro-5H-pyrazolo[5,1-b] [1,3]oxazin-6-yl)-3-hydroxy-3-methylbutanamide]
< 0.01 µM	Cc1nn2c(c1-c1[nH]c3ncccc3c1-c1cn(C)nc1OC(F)F)OC[C@@H](NS(C)(=O)=O)C2 [EX. 547]
0.01 to 0.1 µM	FC(F)Oc1nnccc1-c1c(-c2c(C(F)F)nn3c2OCCC3)[nH]c2ncccc12 [EX. 388, 3-(3-(3-(difluoromethoxy)pyridazin-4-yl)-1H-pyrrolo[2,3-b]pyridin-2-yl)-2-(difluoromethyl)-6,7-dihydro-5H-pyrazolo[5,1-b] [1,3]oxazine]
< 0.01 µM	Cn1cc(-c2c(-c3c(C(F)F)nn4c3OC[C@@H](NC(=O)[C@@H]3C[C@@H]3F)C4)[nH]c3ncccc23)c(OC(F)F)n1 [EX. 549]
< 0.01 µM	Cc1cc(-c2c(-c3c(C(F)F)nn4c3OC[C@@H](OCCO)C4)[nH]c3ncccc23)c(C#N)s1 [EX. 507]
< 0.01 µM	N#Cc1ncccc1-c1c(-c2c(C(F)F)nn3c2OC[C@@H](OCCO)C3)[nH]c2ncccc12 [EX. 508]
< 0.01 µM	N[C@@H]1COc2c(-c3[nH]c4ncccc4c3-c3csnc3OC(F)F)c(C(F)F)nn2C1 [EX. 425]
< 0.01 µM	N#Cc1ccccc1-c1c(-c2c(C(F)F)nn3c2OC[C@H](O)C3)[nH]c2ncccc12 [EX. 371]
< 0.01 µM	Cn1cc(-c2c(-c3c(C(F)F)nn4c3OC[C@@H](NC(=O)OC3CCOC3)C4)[nH]c3ncccc23)c(OC(F)F)n1 (some centres unmarked) [EX. 566]
< 0.01 µM	[2H]C([2H])([2H])Oc1ccc(C#N)c(-c2c(-c3c(C)nn4c3OCC[C@H]4C)[nH]c3ncccc23)c1 [EX. 178]
< 0.01 µM	FC(F)Oc1ncccc1-c1c(-c2c(C(F)F)nn3c2OCCCC3)[nH]c2ncccc12 [EX. 441]
< 0.01 µM	[2H]c1cnc2[nH]c(-c3c(C)nn4c3OCC4)c(-c3cc(OC([2H])([2H])[2H])ccc3C#N)c2c1 [EX. 218]
< 0.01 µM	Cc1nn2c(c1-c1[nH]c3ncccc3c1-c1cn(C)nc1OC(F)F)OC[C@@H](O)C2 [EX. 480, (S)-3-(3-(3-(difluoromethoxy)-1-methyl-1H-pyrazol-4-yl)-1 H-pyrrolo[2,3-b]pyridin-2-yl)-2-methyl-6,7-dihydro-5H-pyrazolo[5,1-b] [1,3]oxazin-6-ol]
< 0.01 µM	Cn1cc(-c2c(-c3c(C(F)F)nn4c3OC[C@@H](N3CCOC3=O)C4)[nH]c3ncccc23)c(OC(F)F)n1 [EX. 579]
< 0.01 µM	[2H]C([2H])([2H])Oc1ccc(C#N)c(-c2c(-c3c(C)nn4c3OCCC4C)[nH]c3ncccc23)c1 (centres unmarked) [EX. 170]
< 0.01 µM	CCn1cc(-c2[nH]c3ncccc3c2-c2ccccc2C#N)c(C(F)(F)F)n1 [EX. 147]

SMILES	IC50
COc1ccc(F)c(-c2c(-c3cc(F)ccc3OC)[nH]c3ncccc23)c1 [EX. 345]	< 0.01 µM
